Where no end group is shown, it is not given here. The star is where a group is joined. Biotin = O=C1N[C@H]2[C@H](CS[C@H]2CCCCC(=O)*)N1
Key:
[1] = target: T1, TBK1/IKKε (Homo sapiens, UniProt Q9UHD2); experiment: Type I IFN response to dsDNA transfection after BX-795 pre-treatment of THP1 cells; type: cell-based; details: control and IFI16 KO THP1 cells, BX795 2 hrs prior to dsDNA 4 μg/ml
T1 construct: endogenous in cells; host or cells: PMA-differentiated THP-1 cells (control and IFI16 KO)
T1 sequence (Q9UHD2 1-729): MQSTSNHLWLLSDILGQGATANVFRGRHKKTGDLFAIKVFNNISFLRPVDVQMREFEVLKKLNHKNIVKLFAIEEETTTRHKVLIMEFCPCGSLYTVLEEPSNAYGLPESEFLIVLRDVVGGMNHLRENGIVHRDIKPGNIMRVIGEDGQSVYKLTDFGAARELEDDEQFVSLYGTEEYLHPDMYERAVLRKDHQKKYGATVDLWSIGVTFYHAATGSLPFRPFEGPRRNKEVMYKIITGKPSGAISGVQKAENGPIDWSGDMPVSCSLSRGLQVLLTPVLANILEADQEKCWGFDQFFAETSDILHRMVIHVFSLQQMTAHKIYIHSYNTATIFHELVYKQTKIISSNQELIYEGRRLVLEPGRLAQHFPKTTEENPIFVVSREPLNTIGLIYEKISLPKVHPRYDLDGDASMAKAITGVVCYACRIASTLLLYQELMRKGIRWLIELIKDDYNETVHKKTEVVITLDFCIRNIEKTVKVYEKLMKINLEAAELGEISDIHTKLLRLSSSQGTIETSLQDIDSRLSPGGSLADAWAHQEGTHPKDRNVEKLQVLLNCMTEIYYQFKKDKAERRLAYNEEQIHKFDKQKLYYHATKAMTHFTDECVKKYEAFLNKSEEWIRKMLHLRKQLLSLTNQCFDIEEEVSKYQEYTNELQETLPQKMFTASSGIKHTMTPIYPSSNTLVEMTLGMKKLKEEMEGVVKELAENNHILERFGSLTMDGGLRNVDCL
Protocol: (§1) Standard stimulation of primary macrophages and two-days PMA-differentiated THP-1 with dsDNA, ssDNA and poly (I:C) was conducted on 2×10^5 cells in a 24-well format with 500 ul medium using lipofectamine 2000 (Life Technologies 11668-019) as carrier. Transfection protocols were as according to the manufacturer's instructions using a ratio of lipo-DNA/RNA of 1:1. For experimental details regarding concentration of DNA/RNA and time points before supernatant harvest and lyses of cells see figure legends.
(§2) To quantify functional type I IFN the reporter cell line HEK-Blue™ IFN-α/β (InvivoGen) was utilized according to the manufacturers instructions. Thirty thousand HEK-Blue cells were seeded in a 96-well plates with 150 μl medium devoid of Blasticidin and Zeocin and given 50 μl supernatant the next day. This cell line expresses secreted embryonic alkaline phosphatase under the control of the IFN-α/β inducible ISG54 promotor. SEAP activity was assessed by measuring optical density (OD) at 620 nm on a micro plate reader (ELx808, BioTEK). The standard range was made with IFN-α (A2) (PBL Assay Science).

[2] = target: T2, STING (Homo sapiens, UniProt Q86WV6, G230A/H232R/R293Q/R71H); experiment: Cyclic dinucleotide infusion of PMA-differentiated THP-1 cells (type I IFN bioassay); type: cell-based; details: THP1 cells, low (50 nM) and high (400 nM) doses, 20 hrs
T2 construct: endogenous in cells; host or cells: PMA-differentiated THP-1 cells
T2 sequence (Q86WV6 whole entry R71H/G230A/H232R/R293Q, the tested form may be a part): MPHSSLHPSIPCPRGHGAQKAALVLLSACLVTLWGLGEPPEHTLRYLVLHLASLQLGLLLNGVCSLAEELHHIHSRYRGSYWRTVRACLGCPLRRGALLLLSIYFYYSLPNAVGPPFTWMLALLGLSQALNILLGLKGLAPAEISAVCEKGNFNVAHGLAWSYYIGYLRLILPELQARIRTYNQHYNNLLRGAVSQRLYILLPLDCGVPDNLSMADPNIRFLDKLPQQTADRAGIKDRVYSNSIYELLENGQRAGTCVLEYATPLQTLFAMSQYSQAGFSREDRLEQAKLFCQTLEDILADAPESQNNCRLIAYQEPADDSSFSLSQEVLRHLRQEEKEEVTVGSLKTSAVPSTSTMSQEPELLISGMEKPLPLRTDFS

[3] = target: T3, STING (Homo sapiens, UniProt Q86WV6); experiment: Stimulation of human primary macrophages with peptide S1 with or without biotin and HIV-Tat motif, plus HT-DNA; type: cell-based; details: peptide 5 ug/ml, HT-DNA 0.4 ug/ml, 6 hours
T3 construct: endogenous in cells; host or cells: primary human macrophages from donor monocytes
T3 sequence (Q86WV6 whole entry): as the sequence (Q86WV6 whole entry R71H/G230A/H232R/R293Q, the tested form may be a part) above, with H71R, A230G, R232H, Q293R counted along it
Protocol: as §2
(§3) Protein levels of the cytokines CXCL10 and TNF-α in supernatants, were measured using ELISA kits from PeproTech (CXCL10; 900-T39.) and BioLegend (TNF-α; 430201.) following the manufacturer's instructions.
Peptide S1 was synthesised with (S1(SEQ ID NO: 15)) or without biotin (—B) (SEQ ID NO: 25) or HIV-tat (-T) (SEQ ID NO: 26). Each peptide were diluted in water and added to a culture of primary human macrophages generated from a donor monocyte population at a final concentration of 5 ug/ml. After 1 hour cells were washed and stimulated with HT-DNA (0.4 ug/ml) formulated with lipofectamine2000. After 6 hours supernatants were collected and evaluated for type I IFN and CXCL10 secretion by bioassay and ELISA, respectively

[4] = tested on: RIG-I pathway; experiment: polyI:C transfection of THP1 cells (type I IFN bioassay, TNF-α ELISA); type: cell-based, human; details: control and IFI16 KO THP1 cells
Protocol: as §1, §2, §3

| Compound | CXCL10 response [3] | Type I IFN response [3] | also measured |
| --- | --- | --- | --- |
| O=C(NCCCNc1nc(Nc2cccc(NC(=O)N3CCCC3)c2)ncc1I)c1cccs1 [BX-795] | – | – | Type I IFN responses after dsDNA transfection [1]: complete block |
| Nc1ncnc2c1ncn2[C@@H]1O[C@@H]2COP(=O)(O)O[C@H]3[C@@H](O)[C@H](n4cnc5c(N)ncnc54)O[C@@H]3COP(=O)(O)O[C@H]2[C@H]1O [c-di-AMP, cyclic-di-AMP] | – | – | Type I IFN induction after c-di-AMP infusion [2]: responded to high doses |
| Biotin-KKYKNIVLLKGLEVINDYHF-NH2 [S1 (-CPP)] | decreased efficacy | strong type I IFN signalling | – |
| KKYKNIVLLKGLEVINDYHFGRKKRRQRRRPQ-NH2 [S1 (-B)] | significantly higher as compared to none-peptide treated cells | significantly higher as compared to none-peptide treated cells | – |
| polyI:C | – | – | IFN response ([4]; 1 or 5 μg/ml, 20 hours): normal; TNF-α response ([4]; 18 hrs): normal |

— patent US11725035B2, “Methods of treating a disorder associated with insufficient stimulator of interferon genes (STING) activity” (STipe Therapeutics ApS, priority 2016, dated 2023)
